# Data taken from patent publication US20130065227A1, “METHODS OF INCREASING MACROPINOCYTOSIS IN CANCER CELLS” (priority 2010, published 2013).
# Experiments:
# DU145 cells = experiment: FL-AS1411 uptake after tAS1411 pre-treatment (flow cytometry); type: cell-based; conditions: 10 μM pre-treatment for 24 h, then 10 μM FL-AS1411 2 h
# Method: FIG. 6 are graphs showing that nucleolin regulates AS1411-induced stimulation of macropinocytosis. DU145 cells were untreated (no transfection) or transfected, without siRNA (mock), or with 30 nM of one of three different nucleolin siRNAs (NCL1, NCL2, NCL3) or a control siRNA (scramble). 48 h after transfection, cells were incubated with 10 μM tAS1411, 10 μM tCRO, or no oligonucleotide in complete DMEM medium at 37° C. for 24 h. (Panel A) After treatment, cell medium was changed for fresh complete medium containing 0.2 mg/ml dextran-10K labeled with Alexa Fluor 488 (green) and incubated for 30 min at 37° C. […] After incubation, cells were harvested and analyzed by flow cytometry. Mean fluorescence was normalized to “not transfected” control (Panel A) or to no pre-treatment control (Panel B). […]
# FIG. 12 are graphs showing the effectiveness of pre-treatment of cells with a GRO. […] After incubation, cells were incubated on ice with 1 mg/ml PI in PBS, harvested, fixed and immediately analyzed by flow cytometry. […]
# AS1411 causes a change in cancer cell morphology that is characterized by vacuolization, irregular nuclei, and swollen cells (Xu et al., 2001, J. Biol. Chem., 276:43221-30). […] To test this idea, DU145 cells were pre-treated for 24 h with tAS1411, then added FL-AS1411 and evaluated uptake after an additional 2 h using flow cytometry. […]
# Hs27 = experiment: Stimulation of macropinocytosis (dextran uptake); type: cell-based, human; conditions: 10 μM for 24, 48, or 72 h, flow cytometry
# Method: (Panel A) DU145 cells were treated with 10 μM tAS1411 or 10 μM tCRO or no oligonucleotide in complete DMEM medium at 37° C. for the time indicated. After treatment, cell medium was changed for fresh complete medium containing 0.2 mg/ml dextran-10K labeled with Alexa Fluor 488, and cells were incubated for 30 min at 37° C. After incubation, cells were harvested and analyzed by flow cytometry to determine dextran uptake. (Panel B) The same experiment was performed using Hs27 cells. (Panel C) DU145 cells were treated with 10 μM tAS1411 or 10 μM tCRO or no oligonucleotide in complete DMEM medium at 37° C. for 48 h. […]
# (§1) AS1411 causes a change in cancer cell morphology that is characterized by vacuolization, irregular nuclei, and swollen cells (Xu et al., 2001, J. Biol. Chem., 276:43221-30). […] To test this idea, DU145 cells were pre-treated for 24 h with tAS1411, then added FL-AS1411 and evaluated uptake after an additional 2 h using flow cytometry. […] This idea is not necessarily inconsistent with the time course data shown in FIG. 1A because the fluorescence signal may decrease over time for a number of reasons, including exocytosis of the ligand and fluorescence quenching due to protein binding or environmental factors (the fluorophore used for flow cytometry is particularly sensitive to acidic environments). […]
# Hs27 cells = experiment: FL-AS1411 uptake after tAS1411 pre-treatment (flow cytometry); type: cell-based, human; conditions: 10 μM pre-treatment for 24 h, then 10 μM FL-AS1411 2 h
# Method: FIG. 12 are graphs showing the effectiveness of pre-treatment of cells with a GRO. DU145 or Hs27 cells were treated with or without 10 μM tAS1411 in complete DMEM medium at 37° C. for 24 h. After treatment, cells were washed, fresh complete medium containing 10 μM FL-AS1411 was added, and cells were incubated for a further 2 h at 37° C. After incubation, cells were incubated on ice with 1 mg/ml PI in PBS, harvested, fixed and immediately analyzed by flow cytometry.
# To analyze uptake of the oligodeoxynucleotides or dextran-10K (macropinocytic marker) by flow cytometry, 2×10^5 cells in fresh supplemented culture medium (2.5 ml) were plated into 6-well plates for 18 h. […]
# AS1411 causes a change in cancer cell morphology that is characterized by vacuolization, irregular nuclei, and swollen cells (Xu et al., 2001, J. Biol. Chem., 276:43221-30). […] To test this idea, DU145 cells were pre-treated for 24 h with tAS1411, then added FL-AS1411 and evaluated uptake after an additional 2 h using flow cytometry. […] This idea is not necessarily inconsistent with the time course data shown in FIG. 1A because the fluorescence signal may decrease over time for a number of reasons, including exocytosis of the ligand and fluorescence quenching due to protein binding or environmental factors (the fluorophore used for flow cytometry is particularly sensitive to acidic environments).
# MCF10A = experiment: Stimulation of macropinocytosis (dextran uptake); type: cell-based, human; conditions: MCF-10A, 10 μM for 48 hr or 72 hr
# Method: FIG. 10 are graphs showing the stimulation of macropinocytosis by GROs. Breast carcinoma cells (MDA-MB-231, MCF-7) or non-malignant breast epithelial cells (MCF10A) cells were plated 18 hr before treatment with 10 μM tAS1411 or 10 μM tCRO or water in complete DMEM medium at 37° C. for 48 hr or 72 hr. After treatment, cell medium was changed for fresh complete medium containing 0.2 mg/ml dextran-10K labeled with Alexa Fluor 488 and cells were incubated for 30 min at 37° C. Cells were then incubated on ice with 1 mg/ml PI in PBS, harvested, and analyzed by flow cytometry. Uptake was normalized to no pre-treatment controls and bars show the mean and SE of three independent experiments. […]
# as §1
# DU145 = experiment: Stimulation of macropinocytosis (dextran uptake); type: cell-based
# Method: (Panel A) DU145 cells were treated with 10 μM tAS1411 or 10 μM tCRO or no oligonucleotide in complete DMEM medium at 37° C. for the time indicated. After treatment, cell medium was changed for fresh complete medium containing 0.2 mg/ml dextran-10K labeled with Alexa Fluor 488, and cells were incubated for 30 min at 37° C. After incubation, cells were harvested and analyzed by flow cytometry to determine dextran uptake. (Panel B) The same experiment was performed using Hs27 cells. (Panel C) DU145 cells were treated with 10 μM tAS1411 or 10 μM tCRO or no oligonucleotide in complete DMEM medium at 37° C. for 48 h. After treatment, cell medium was changed for fresh complete medium containing 0.2 mg/ml dextran-10K tagged with Alexa Fluor 488, and cells were incubated for 30 min at 37° C. Then, cells were washed with cold PBS, added PBS containing 5 μg/ml PI and incubated on ice for 5 min. After washing with cold PBS, cells were fixed and the distribution of macropinocytic marker was visualized by confocal microscopy. The nucleus was stained with DAPI (blue). Scale bars, 10 μm. All experiments have been repeated at least three times. Data are mean of three independent samples; bars, SE; *(p<0.05).
# FIG. 6 are graphs showing that nucleolin regulates AS1411-induced stimulation of macropinocytosis. DU145 cells were untreated (no transfection) or transfected, without siRNA (mock), or with 30 nM of one of three different nucleolin siRNAs (NCL1, NCL2, NCL3) or a control siRNA (scramble). 48 h after transfection, cells were incubated with 10 μM tAS1411, 10 μM tCRO, or no oligonucleotide in complete DMEM medium at 37° C. for 24 h. (Panel A) After treatment, cell medium was changed for fresh complete medium containing 0.2 mg/ml dextran-10K labeled with Alexa Fluor 488 (green) and incubated for 30 min at 37° C. (Panel B) After treatment, some cells were washed, fresh complete medium containing 10 μM FL-AS1411 added and incubated for 2 h at 37° C. After incubation, cells were harvested and analyzed by flow cytometry. Mean fluorescence was normalized to “not transfected” control (Panel A) or to no pre-treatment control (Panel B). All experiments have been repeated at least three times. Data are the mean of three independent samples; bars, SE; *(p<0.05).
# FIG. 11 is a graph showing a comparison between AS1411 and tAS1411 in the ability to stimulate macropinocytosis. DU145 cells were plated 18 hr before treatment with different concentrations (0, 5, 10, or 15 μM) of AS1411, tAS1411 or tCRO in complete DMEM medium at 37° C. for 48 h. After treatment, cell medium was changed for fresh complete medium containing 0.2 mg/ml dextran-10K labeled with Alexa Fluor 488, and cells were incubated for 30 min at 37° C. After incubation, cells were incubated on ice with […] PI in PBS, harvested, fixed and immediately analyzed by flow cytometry.
# (§2) To analyze uptake of the oligodeoxynucleotides or dextran-10K (macropinocytic marker) by flow cytometry, 2×10^5 cells in fresh supplemented culture medium (2.5 ml) were plated into 6-well plates for 18 h. After complete adhesion, the cells were incubated with 5′-FAM tagged oligodeoxynucleotides or Alexa Fluor 488 tagged dextran-10K and incubated as indicated in the Description of the Drawings. Cells were washed once with ice-cold PBS, incubated with 1 μg/ml 7-amino-actinomycin D (7-AAD) for 5 min on ice or 1 μg/ml propidium iodide (PI), and washed twice with ice-cold PBS. Cells were then treated with 0.01% trypsin/0.5 mM EDTA (300 μl) for 3 min prior addition 3 ml supplemented culture medium. The cells were then centrifuged and resuspended in 0.5 ml of 1% paraformaldehyde for analysis by flow cytometry using a FACScalibur cytometer (BD Biosciences, Mountain View, Calif.).
# AS1411 causes a change in cancer cell morphology that is characterized by vacuolization, irregular nuclei, and swollen cells (Xu et al., 2001, J. Biol. Chem., 276:43221-30). […]
# MCF7 = experiment: Stimulation of macropinocytosis (dextran uptake); type: cell-based; conditions: MCF-7, 10 μM for 48 hr or 72 hr
# Method: (§3) FIG. 10 are graphs showing the stimulation of macropinocytosis by GROs. Breast carcinoma cells (MDA-MB-231, MCF-7) or non-malignant breast epithelial cells (MCF10A) cells were plated 18 hr before treatment with 10 μM tAS1411 or 10 μM tCRO or water in complete DMEM medium at 37° C. for 48 hr or 72 hr. After treatment, cell medium was changed for fresh complete medium containing 0.2 mg/ml dextran-10K labeled with Alexa Fluor 488 and cells were incubated for 30 min at 37° C. Cells were then incubated on ice with 1 mg/ml PI in PBS, harvested, and analyzed by flow cytometry. Uptake was normalized to no pre-treatment controls and bars show the mean and SE of three independent experiments.
# as §2
# (§4) AS1411 causes a change in cancer cell morphology that is characterized by vacuolization, irregular nuclei, and swollen cells (Xu et al., 2001, J. Biol. Chem., 276:43221-30). Therefore, the effect of AS1411 on macropinocytosis in DU145 cells and non-malignant Hs27 cells was investigated. […] As in all of the flow cytometry experiments, cells were gated to exclude permeable cells, discounting the possibility that this increase was due to cell death. […] One implication of the finding that AS1411 causes hyperstimulation of macropinocytosis is that treatment of AS1411 might actually promote its own internalization by cancer cells. To test this idea, DU145 cells were pre-treated for 24 h with tAS1411, then added FL-AS1411 and evaluated uptake after an additional 2 h using flow cytometry. […] This idea is not necessarily inconsistent with the time course data shown in FIG. 1A because the fluorescence signal may decrease over time for a number of reasons, including exocytosis of the ligand and fluorescence quenching due to protein binding or environmental factors (the fluorophore used for flow cytometry is particularly sensitive to acidic environments). […]
# MDA-MB-231 = experiment: Stimulation of macropinocytosis (dextran uptake); type: cell-based; conditions: MDA-MB-231, 10 μM for 48 hr or 72 hr
# Method: as §3, §2, §4
substance,measurement,setting,value
5′-d(TTTGGTGGTGGTGGTTGTGGTGGTGGTGG) [tAS1411],uptake of FL-AS1411 after pre-treatment,DU145 cells,increase in the uptake of FL-AS1411
same,"uptake of the macropinocytic marker, dextran, after treatment",Hs27,no increase
same,uptake of FL-AS1411 after pre-treatment,Hs27 cells,no comparable increase
same,stimulation of macropinocytosis,MCF10A,much reduced effect
same,"uptake of the macropinocytic marker, dextran, after treatment","DU145; 10 μM for 24, 48, or 72 h, flow cytometry","significant increment in the uptake of the macropinocytic marker, dextran"
same,dextran uptake by confocal microscopy,"DU145; 10 μM for 48 h, versus untreated or CRO-treated cells",higher dextran uptake confined in large vesicle
same,stimulation of macropinocytosis,MCF7,induce hyperstimulation of macropinocytosis
same,stimulation of macropinocytosis,MDA-MB-231,induce hyperstimulation of macropinocytosis
